Molecules are shown by their SMILES. Converted amounts (≈) assume the structure as drawn.

A short description of data set [1]: Toxicity in brine shrimp larvae assessed as mortality after 24 hrs. The settings on record: artemia salina, in vivo. It is filed as organism-based.
For data set [2], the system named is Artemia salina. Nature of the data set: Toxicity in brine shrimp larvae assessed as mortality at 50 ug/ml after 24 hrs. It is filed as organism-based. The note with it: in vivo.
In data set [3] the test system is Artemia salina. The data set is described as follows: Toxicity in brine shrimp larvae assessed as mortality at 100 ug/ml after 24 hrs. Type of data set: organism-based. The note with it: in vivo.
For data set [4], the system named is Artemia salina. The data set is described as follows: Toxicity in brine shrimp larvae assessed as mortality at 800 ug/ml after 24 hrs. It is filed as organism-based. The note with it: in vivo.
For data set [5], the system named is Artemia salina. Nature of the data set: Toxicity in brine shrimp larvae assessed as mortality at 1600 ug/ml after 24 hrs. Type of data set: organism-based. The settings on record: in vivo.
Another data set relates to Pichia kudriavzevii. The data set is described as follows: Antimicrobial activity against Candida krusei ATCC 6258 after 24 hrs by broth microdilution method. Type of data set: functional. The note with it: ATCC 6258, 24 h. In general terms: Broth dilution looks for growth in wells or tubes with falling amounts of substance.
The subject of the next data set is Nakaseomyces glabratus. The data set is described as follows: Antimicrobial activity against Candida glabrata ATCC 90030 after 24 hrs by broth microdilution method. The note with it: ATCC 90030, 24 h. It is filed as functional.
For a further data set, the system named is Listeria monocytogenes. The data set is described as follows: Antimicrobial activity against Listeria monocytogenes ATCC 19115 after 24 hrs by broth microdilution method. The settings on record: ATCC 19115, 24 h. It is filed as functional.
The next data set has as its system Candida albicans. The data set is described as follows: Antimicrobial activity against Candida albicans ATCC 90028 after 24 hrs by broth microdilution method. Type of data set: functional. The settings on record: ATCC 90028, 24 h.
The next data set has as its system Staphylococcus aureus. Nature of the data set: Antimicrobial activity against Staphylococcus aureus ATCC 25923 after 24 hrs by broth microdilution method. It is filed as functional. The settings on record: ATCC 25923, 24 h.
Data set [6] has as its system Enterococcus faecalis. Nature of the data set: Antimicrobial activity against Enterococcus faecalis ATCC 51299 after 24 hrs by broth microdilution method. It is filed as functional. The note with it: ATCC 51299, 24 h.
Data set [7] relates to Enterococcus faecalis. The data set is described as follows: Antimicrobial activity against Enterococcus faecalis ATCC 29212 after 24 hrs by broth microdilution method. The settings on record: ATCC 29212, 24 h. Type of data set: functional.
Another data set has as its system Pseudomonas aeruginosa. The data set is described as follows: Antimicrobial activity against Pseudomonas aeruginosa ATCC 27853 after 24 hrs by broth microdilution method. Type of data set: functional. The settings on record: ATCC 27853, 24 h.
Another data set relates to Klebsiella pneumoniae. Nature of the data set: Antimicrobial activity against Klebsiella pneumoniae ATCC 13883 after 24 hrs by broth microdilution method. Type of data set: functional. The settings on record: ATCC 13883, 24 h.
The test system of data set [8] is Escherichia coli. Nature of the data set: Antimicrobial activity against Escherichia coli ATCC 25922 after 24 hrs by broth microdilution method. The settings on record: ATCC 25922, 24 h. Type of data set: functional.
Data set [9] concerns Escherichia coli. Nature of the data set: Antimicrobial activity against Escherichia coli ATCC 35218 after 24 hrs by broth microdilution method. Type of data set: functional. The settings on record: ATCC 35218, 24 h.

Turning to `Cc1nc(SCC(=O)c2ccc(F)c(F)c2)n(Nc2ccc(Cl)cc2)c1C`, the LC50 at 24 h in data set [1] worked out at 359 µg/mL (≈ 881 µM). For the same compound, the Activity entry is on record as “Non-toxic” with Artemia salina [2], “Non-toxic” with Artemia salina [3], “Toxic” with Artemia salina [4] and “Toxic” in the data set with Artemia salina [5]. Moreover, the minimal inhibitory concentration (MIC) stood at 100 µg/mL (≈ 245 µM) against Pichia kudriavzevii; 100 µg/mL (≈ 245 µM) against Nakaseomyces glabratus; 50 µg/mL (≈ 123 µM) in the data set on Listeria monocytogenes; 50 µg/mL (≈ 123 µM) in the data set on Candida albicans; 400 µg/mL (≈ 981 µM) against Staphylococcus aureus; 400 µg/mL (≈ 981 µM) against Enterococcus faecalis [6]. The minimum inhibitory concentration (MIC) was 50 µg/mL (≈ 123 µM) against Enterococcus faecalis [7]; 400 µg/mL (≈ 981 µM) in the data set on Pseudomonas aeruginosa; 400 µg/mL (≈ 981 µM) against Klebsiella pneumoniae; 400 µg/mL (≈ 981 µM) in the data set on Escherichia coli [8]; 800 µg/mL (≈ 1960 µM) against Escherichia coli [9].

On to `Cc1ccc(Nn2c(SCC(=O)c3cccc(F)c3)nc(C)c2C)cc1`, for which the minimum inhibitory concentration (MIC) against Pichia kudriavzevii was determined as 400 µg/mL (≈ 1080 µM); against Nakaseomyces glabratus, 800 µg/mL (≈ 2170 µM); against Listeria monocytogenes, 400 µg/mL (≈ 1080 µM); in the data set on Candida albicans, 800 µg/mL (≈ 2170 µM); in the data set on Staphylococcus aureus it was 800 µg/mL (≈ 2170 µM); with Enterococcus faecalis [6], 400 µg/mL (≈ 1080 µM). Further, the minimum inhibitory concentration (MIC) in the data set on Enterococcus faecalis [7] stood at 200 µg/mL (≈ 541 µM); with Pseudomonas aeruginosa, 400 µg/mL (≈ 1080 µM); with Klebsiella pneumoniae it was 400 µg/mL (≈ 1080 µM); against Escherichia coli [8], 800 µg/mL (≈ 2170 µM); in the data set on Escherichia coli [9] it was 800 µg/mL (≈ 2170 µM).

On to `Cc1ccc(Nn2c(SCC(=O)c3ccc(F)cc3)nc(C)c2C)cc1`, for which the minimal inhibitory concentration (MIC) in the data set on Pichia kudriavzevii, against Nakaseomyces glabratus, against Listeria monocytogenes, against Candida albicans, in the data set on Staphylococcus aureus and in the data set with Enterococcus faecalis [6] was 1600 µg/mL (≈ 4330 µM) in each case. For the same compound, the minimal inhibitory concentration (MIC) in the data set on Enterococcus faecalis [7], against Pseudomonas aeruginosa, against Klebsiella pneumoniae, against Escherichia coli [8] and against Escherichia coli [9] was 1600 µg/mL (≈ 4330 µM) in each case.

For the compound `Cc1ccc(Nn2c(SCC(=O)c3ccc(F)c(F)c3)nc(C)c2C)cc1`, the MIC with Pichia kudriavzevii is 100 µg/mL (≈ 258 µM); against Nakaseomyces glabratus, 400 µg/mL (≈ 1030 µM); against Listeria monocytogenes it was 800 µg/mL (≈ 2060 µM); in the data set on Candida albicans it was 200 µg/mL (≈ 516 µM); against Staphylococcus aureus it was 800 µg/mL (≈ 2060 µM); against Enterococcus faecalis [6] it was 200 µg/mL (≈ 516 µM). The MIC with Enterococcus faecalis [7] was found to be 400 µg/mL (≈ 1030 µM); with Pseudomonas aeruginosa it was 800 µg/mL (≈ 2060 µM); in the data set with Klebsiella pneumoniae it was 800 µg/mL (≈ 2060 µM); in the data set with Escherichia coli [8], 800 µg/mL (≈ 2060 µM); with Escherichia coli [9], 800 µg/mL (≈ 2060 µM).

`Cc1ccc(Nn2c(SCC(=O)c3cccc(Cl)c3)nc(C)c2C)cc1`: the MIC against Pichia kudriavzevii, in the data set on Nakaseomyces glabratus, against Listeria monocytogenes, in the data set with Candida albicans, against Staphylococcus aureus and in the data set with Enterococcus faecalis [6] was 800 µg/mL (≈ 2070 µM) each time. For the same compound, the MIC with Enterococcus faecalis [7], in the data set with Pseudomonas aeruginosa, against Klebsiella pneumoniae, with Escherichia coli [8] and with Escherichia coli [9] was 800 µg/mL (≈ 2070 µM) throughout.

With `Cc1ccc(Nn2c(SCC(=O)c3ccc(Cl)cc3)nc(C)c2C)cc1`, the minimal inhibitory concentration (MIC) in the data set on Pichia kudriavzevii was 200 µg/mL (≈ 518 µM); with Nakaseomyces glabratus, 400 µg/mL (≈ 1040 µM); in the data set with Listeria monocytogenes, 800 µg/mL (≈ 2070 µM); against Candida albicans, 400 µg/mL (≈ 1040 µM); in the data set on Staphylococcus aureus, 800 µg/mL (≈ 2070 µM); against Enterococcus faecalis [6], 400 µg/mL (≈ 1040 µM). For the same compound, the minimal inhibitory concentration (MIC) stood at 400 µg/mL (≈ 1040 µM) against Enterococcus faecalis [7]; 800 µg/mL (≈ 2070 µM) in the data set on Pseudomonas aeruginosa; 800 µg/mL (≈ 2070 µM) in the data set on Klebsiella pneumoniae; 400 µg/mL (≈ 1040 µM) with Escherichia coli [8]; 800 µg/mL (≈ 2070 µM) against Escherichia coli [9].

In the case of `Cc1ccc(Nn2c(SCC(=O)c3ccc(Cl)c(Cl)c3)nc(C)c2C)cc1`, the minimum inhibitory concentration (MIC) is 800 µg/mL (≈ 1900 µM) in the data set on Pichia kudriavzevii; 800 µg/mL (≈ 1900 µM) against Nakaseomyces glabratus; 800 µg/mL (≈ 1900 µM) in the data set with Listeria monocytogenes; 800 µg/mL (≈ 1900 µM) against Candida albicans; 800 µg/mL (≈ 1900 µM) with Staphylococcus aureus; 400 µg/mL (≈ 952 µM) with Enterococcus faecalis [6]. In addition, the minimal inhibitory concentration (MIC) in the data set with Enterococcus faecalis [7] came to 400 µg/mL (≈ 952 µM); against Pseudomonas aeruginosa, 800 µg/mL (≈ 1900 µM); with Klebsiella pneumoniae, 800 µg/mL (≈ 1900 µM); against Escherichia coli [8], 400 µg/mL (≈ 952 µM); against Escherichia coli [9], 800 µg/mL (≈ 1900 µM).

`COc1ccc(Nn2c(SCC(=O)c3ccccc3)nc(C)c2C)cc1`: the MIC in the data set on Pichia kudriavzevii worked out at 800 µg/mL (≈ 2180 µM); with Nakaseomyces glabratus it was 800 µg/mL (≈ 2180 µM); against Listeria monocytogenes, 800 µg/mL (≈ 2180 µM); against Candida albicans, 800 µg/mL (≈ 2180 µM); in the data set on Staphylococcus aureus, 800 µg/mL (≈ 2180 µM); with Enterococcus faecalis [6] it was 100 µg/mL (≈ 272 µM). Moreover, the minimum inhibitory concentration (MIC) in the data set on Enterococcus faecalis [7], against Pseudomonas aeruginosa, in the data set on Klebsiella pneumoniae, in the data set with Escherichia coli [8] and in the data set with Escherichia coli [9] was 800 µg/mL (≈ 2180 µM) in each case.

Take `COc1cccc(C(=O)CSc2nc(C)c(C)n2Nc2ccccc2)c1`: the MIC in the data set on Pichia kudriavzevii was 400 µg/mL (≈ 1090 µM); against Nakaseomyces glabratus, 400 µg/mL (≈ 1090 µM); in the data set on Listeria monocytogenes, 800 µg/mL (≈ 2180 µM); in the data set with Candida albicans, 400 µg/mL (≈ 1090 µM); with Staphylococcus aureus it was 800 µg/mL (≈ 2180 µM); in the data set on Enterococcus faecalis [6], 800 µg/mL (≈ 2180 µM). Further, the minimum inhibitory concentration (MIC) in the data set with Enterococcus faecalis [7] was found to be 800 µg/mL (≈ 2180 µM); against Pseudomonas aeruginosa, 400 µg/mL (≈ 1090 µM); in the data set on Klebsiella pneumoniae, 400 µg/mL (≈ 1090 µM); with Escherichia coli [8] it was 400 µg/mL (≈ 1090 µM); with Escherichia coli [9], 800 µg/mL (≈ 2180 µM).

A word on the LC50: it is the concentration that kills 50% of the test population. The term MIC denotes the least concentration at which growth counts as inhibited. Higher therefore signals a less susceptible organism.

The record behind these values is ChEMBL document CHEMBL3091428, “Synthesis and initial biological evaluation of substituted 1-phenylamino-2-thio-4,5-dimethyl-1H-imidazole derivatives” (Bioorg Med Chem Lett, 2013).
